These results are taken from publication PMC6009982, “Diaryl ethers with carboxymethoxyphenacyl motif as potent HIV-1 reverse transcriptase inhibitors with improved solubility” (Journal of Enzyme Inhibition and Medicinal Chemistry, 2017).

Data set [1] deals with T1, HIV-1 RT (Human immunodeficiency virus type 1 group M subtype B, UniProt P04585).
T1 construct: Because HIV-1 reverse transcriptase (RT) has a low fidelity; purchased Roche, Basel, Switzerland
Description: HIV RT inhibitory activity, colorimetric Reverse Transcriptase Assay kit (Roche). The data set is classed as biochemical. The protocol: HIV RT inhibitory activity of the new compounds was measured using the colorimetric Reverse Transcriptase Assay kit (Roche, Basel, Switzerland). […] Averaged results from at least two measurements were used to obtain an inhibition curve. IC50 values were obtained by interpolating the curve using non-linear regression.

Data set [2] in a line: Aqueous solubility by weighing dried aliquots. The data set is classed as physicochemical. Conditions: ultrapure deionised water, room temperature, pH =7. The protocol: Substances were dissolved in ultrapure deionised water at room temperature up to concentrations of 50 g/L. Solutions were centrifuged and their aliquots were transferred into weighed glass vials (d = 0.01 mg). The samples were dried under reduced pressure and the vials were weighed again. The solubility was calculated from mass difference divided by sample volume.

The test system of data set [3] is SupT1 cells. Description: Cytotoxicity from cell numbers in non-infected SupT1 cultures. Conditions: concentration at which toxicity is observed in 10-fold titration series. The data set is classed as cell-based. The protocol:
(§1) CD4^+ T cells were harvested from normal donors and cultured in Roswell Park Memorial Institute medium (RPMI) supplemented with 2 mM L-glutamine (Life Technologies, Merelbeke, Belgium), 10% (v/v) heat-inactivated foetal calf serum (Hyclone, Thermo Fisher Scientific, Waltham, MA), 100 U/mL penicillin and 100 µg/mL streptomycin (Life Technologies), 20 ng/mL interleukin-2 (IL-2; specific activity 10 U/ng, Peprotech, London, UK), and with 1 µg/mL phytohemagglutinin (PHA) mitogen (Thermo Fisher Scientific), 72 h prior to infection, as described earlier. SupT1 cells were maintained at maximum 500,000 cells/mL, in Iscove’s Modified Dulbecco’s Medium (IMDM) supplemented with 2 mM L-glutamine (Life Technologies) and 10% (v/v) heat-inactivated foetal calf serum (Hyclone, Thermo Fisher Scientific, Waltham, MA), as described earlier.
(§2) Lyophilised compound was dissolved in dimethyl sulfoxide to a concentration of 5 mM, and further diluted in cell culture medium (SupT1: IMDM and CD4^+ T cells: RPMI). Cells were incubated 2 h prior infection in appropriate medium as described above, now also supplemented with diluted compound. Subsequently, cells (SupT1: 50,000 per 96 well, CD4^+ T cells: 250,000 per 96 well) were infected with HIV (HIV NL4–3-GFP-I, an infectious virus expressing green fluorescent protein (GFP) from gfp-IRES-nef mRNA expressed from the nef locus, as described earlier. Medium was as described above, now also supplemented with diluted compound (For CD4^+ T cells, PHA was left out). Medium was refreshed after 24 h, keeping compound and supplement concentrations constant. After 72 h, cells were harvested, measured by flow cytometry for GFP expression and counted, using a MACSQuant flow cytometer (Miltenyi Biotec, Bergisch Gladbach, Germany). Infection rate measured by GFP expression was between 6 and 20%. Cell numbers were used to measure cytotoxicity (cell numbers in non-infected cultures supplemented with compound were compared to cell numbers obtained in parallel cultures without compound added: a reduction with more than 10% was considered to indicate cytotoxicity).
First, toxicity of the compounds was determined in SupT1 cells. Since even minor toxicity affects the support of viral replication by the cell, compounds should be active well below threshold toxic concentration (i.e. concentration at which toxicity is observed in 10-fold titration series).

For data set [4], the system named is HIV NL4-3-GFP-I in SupT1 cells. Description: Infection assay in SupT1 cells, GFP flow cytometry. Conditions: for Antiviral activity: SupT1 cells, at 10-fold lower concentration than threshold toxic concentration. The data set is classed as cell-based, HIV-1. As for the experimental part: as §1, §2
The conditions of data set [5]: ref Janssen et al.[15]; cited from earlier work.
Where [6] appears, read: HIV-1 RT, 2 ng enzyme, at least two measurements, read-out: IC50.
Setting [7] is: thermodynamic from solid, read-out: Solubility.

Values after ≈ are worked out from the molar mass of the structure shown. Read-outs that look alike come from different tables or passages of the source. Marks after values point to notes of the source that are not given here.

`N#Cc1cc(Cl)cc(Oc2cc(OCC(=O)c3ccc(OCC(=O)O)cc3)ccc2Cl)c1` [Compound 7a]: the IC50 in data set [1] (setting [6]) was found to be 1.23 ± 0.05 µM. In data set [2] (setting [7]), the Solubility was 13.1 mg/mL (≈ 27.7 mM). The molecule further yielded a Threshold toxicity in data set [3] of 5 µM.
`O=C([O-])COc1ccc(C(=O)COc2ccc(Cl)c(Oc3cc(Cl)cc(Cl)c3)c2)cc1.[K+]` [Compound 7b] returned an IC50 in data set [1] of 6.75 ± 0.5 µM. The Solubility in data set [2] (setting [7]) worked out at 4.3 mg/mL. Further, the Threshold toxicity in data set [3] is on record as 50 µM. In addition, the Antiviral activity result in data set [4] is “+”.
With `N#Cc1cc(Cl)cc(Oc2cc(Cl)cc(OCC(=O)c3ccc(OCC(=O)[O-])cc3)c2)c1.[K+]` [Compound 7c], in data set [1] (setting [6]), the IC50 is 8.3 ± 1.3 µM. Besides, the Solubility in data set [2] is greater than 50.0 mg/mL. In addition, in data set [3], the Threshold toxicity worked out at 50 µM.
The corresponding values for `N#Cc1cc(Cl)cc(Oc2cccc(OCC(=O)c3ccc(OCC(=O)[O-])cc3)c2)c1.[K+]` [Compound 7d] are 9.78 ± 0.67 µM, greater than 50.0 mg/mL and 50 µM.
As for `Cc1cc(OCC(=O)[O-])ccc1C(=O)COc1ccc(Cl)c(Oc2cc(Cl)cc(C#N)c2)c1.[K+]` [Compound 7f], the IC50 in data set [1] (setting [6]) was determined as 4.71 ± 0.43 µM. This molecule gave a Solubility in data set [2] of 8.9 mg/mL. In data set [3], this molecule yielded a Threshold toxicity greater than 50 µM. Moreover, the Antiviral activity result in data set [4] was “+”.
Consider `Cc1cc(C(=O)COc2ccc(Cl)c(Oc3cc(Cl)cc(C#N)c3)c2)ccc1OCC(=O)[O-].[K+]` [Compound 7g], for which the half-maximal inhibitory concentration (IC50) in data set [1] (setting [6]) came to 0.65 ± 0.03 µM. Further, in data set [2], the Solubility was found to be 3.8 mg/mL. In data set [3], this molecule yielded a Threshold toxicity of 50 µM. The Antiviral activity entry in data set [4] is on record as “+”.
Turning to `N#Cc1cc(Cl)cc(Oc2ccc(Cl)cc2OCC(=O)c2ccc(OCC(=O)O)cc2)c1` [Compound 8a], the IC50 in data set [1] (setting [6]) turned out to be 23.4 ± 1.6 µM. For the same molecule, in data set [2] (setting [7]), the Solubility was greater than 50 mg/mL. Also, the Threshold toxicity in data set [3] is 50 µM.
For the molecule `Cc1cc(OCC(=O)[O-])ccc1C(=O)COc1cc(Cl)ccc1Oc1cc(Cl)cc(C#N)c1.[K+]` [Compound 8d], the IC50 in data set [1] (setting [6]) was 4.7 ± 0.7 µM. Besides, in data set [2], the Solubility amounted to 14.4 mg/mL. Besides, the Threshold toxicity in data set [3] was found to be 50 µM.
As for `Cc1cc(C(=O)COc2cc(Cl)ccc2Oc2cc(Cl)cc(C#N)c2)ccc1OCC(=O)[O-].[K+]` [Compound 8e], the IC50 in data set [1] (setting [6]) was found to be 3.07 ± 0.22 µM. The same molecule yielded a Solubility in data set [2] of 39.9 mg/mL. Further, the Threshold toxicity in data set [3] was 50 µM. Besides, the Antiviral activity entry in data set [4] is given as “+”.
As to `N#Cc1cc(Cl)cc(Oc2cc(Cl)ccc2OCC(=O)c2ccc(Oc3ccc(OCC(=O)[O-])cc3)cc2)c1.[K+]` [Compound 8f], the IC50 in data set [1] (setting [6]) amounted to 1.27 ± 0.05 µM. In data set [2], this molecule displayed a Solubility greater than 50.0 mg/mL. The molecule further came in with a Threshold toxicity in data set [3] of 5 µM.
`Cc1ccnc2c1NC(=O)c1cccnc1N2C1CC1` [NVP, nevirapine, reference compound] yielded a Threshold toxicity in data set [3] of 50 µM. In addition, the IC50 in data set [4] (Human immunodeficiency virus 1, NL43, SUP-T1, read-out: IC50 (infection rate), reference run in parallel) worked out at 0.04 µM. In data set [4], the Antiviral activity result was “+”.
For `Cc1cc(/C=C/C#N)cc(C)c1Nc1ccnc(Nc2ccc(C#N)cc2)n1` [RPV, rilpivirine, reference compound], the IC50 in data set [1] (setting [6]) was 0.32 ± 0.04 µM. Further, the Threshold toxicity in data set [3] is 0.5 µM. For the same molecule, in data set [4], the Antiviral activity result was “+”. Also, the Solubility in data set [5] was 0.00002 ^b g/L.
